Converted amounts (≈) assume the structure as drawn.
System: Culex pipiens
Experiment: Toxicity in Culex pipiens at third larval instar measured after 24 hrs
Format: organism-based

Q: Which LC50 does the source give for `Cc1ccc(C(=O)C/C(=C\c2cc3ccc4ccccc4c3nc2Cl)C(=O)N/N=C/c2ccccc2O)cc1` here?
A: 29.3 µg/mL (≈ 54.9 µM)

Q: With `CCCCCCCCCCCC(=O)NN1C(=O)/C(=C/c2cc3ccc4ccccc4c3nc2Cl)C=C1c1ccc(C)cc1` as the molecule, how does the LC50 read?
A: 0.4 µg/mL (≈ 0.673 µM)

Q: `COc1ccc(/C=N/NC(=O)/C(=C/c2cc3ccc4ccccc4c3nc2Cl)CC(=O)c2ccc(C)cc2)cc1OC` was tested. Which LC50 did it give?
A: 202 µg/mL (≈ 349 µM)

Q: `Cc1ccc(C(=O)C/C(=C\c2cc3ccc4ccccc4c3nc2Cl)C(=O)NNC(=O)CCC(=O)NNC(=O)/C(=C/c2cc3ccc4ccccc4c3nc2Cl)CC(=O)c2ccc(C)cc2)cc1` was tested. Which LC50 did it give?
A: 136 µg/mL (≈ 144 µM)

Q: With `CC(=O)NNC(=O)/C(=C/c1cc2ccc3ccccc3c2nc1Cl)CC(=O)c1ccc(C)cc1` as the molecule, how does the LC50 read?
A: 116 µg/mL (≈ 245 µM)

Q: How did the LC50 turn out when `Cc1ccc(C2=C/C(=C\c3cc4ccc5ccccc5c4nc3Cl)C(=O)N2NC(=O)c2ccccc2)cc1` was run?
A: 4.9 µg/mL (≈ 9.5 µM)

Q: With `Cc1ccc(C2=C/C(=C\c3cc4ccc5ccccc5c4nc3Cl)C(=O)N2NC(=O)CCl)cc1` as the molecule, how does the LC50 read?
A: 23.9 µg/mL (≈ 48.9 µM)

Q: For `CC(=O)NN1C(=O)/C(=C/c2cc3ccc4ccccc4c3nc2Cl)C=C1c1ccc(C)cc1`, which LC50 is on record?
A: 97.5 µg/mL (≈ 215 µM)

Q: For `Cc1ccc(C(=O)C/C(=C\c2cc3ccc4ccccc4c3nc2Cl)C(=O)NN)cc1`, which LC50 is on record?
A: 86.4 µg/mL (≈ 201 µM)

Q: With `CC(=O)N(C(C)=O)N1C(=O)/C(=C/c2cc3ccc4ccccc4c3nc2Cl)C=C1c1ccc(C)cc1` as the molecule, how does the LC50 read?
A: 329 µg/mL (≈ 663 µM)

Q: Which LC50 does the source give for `CCOP(=S)(OCC)Oc1nc(Cl)c(Cl)cc1Cl` [CHLORPYRIFOS] here?
A: 272 µg/mL (≈ 776 µM)
